≈ marks a conversion by molar mass, not a printed value.
Tests used:
[1] = tested on: ED-43/SG-Feo (VYG) replicon of HCV genotype 4a; experiment: Antiviral bioassay against ED-43/SG-Feo; type: cell-based; conditions: nontoxic dose of compound
HSV-1 = conditions: for mean % of reduction, herpes simplex virus: nontoxic dose of compound
CBV4 = experiment: Plaque reduction assay against coxsackievirus B4; type: cell-based; conditions: nontoxic dose of compound
HAV HM175 = experiment: Plaque reduction assay against HAV HM175; type: cell-based, hepatitis A virus HM 175; conditions: for mean % of reduction, hepatitis A virus HM 175: nontoxic dose of compound
HAdV7 = experiment: Plaque reduction assay against adenovirus 7; type: cell-based, human adenovirus type 7; conditions: nontoxic dose of compound
FRHK-4 cell line = experiment: Cytotoxicity test on FRHK-4 cell line; type: cell-based; conditions: hepatitis A virus HM 175 columns; host cells FRHK4
Vero cell line = experiment: Cytotoxicity test on Vero cell line; type: cell-based; conditions: herpes simplex virus table; host cells Vero

Compound	mean % of reduction, HCVcc genotype 4 [1]	mean % of reduction, herpes simplex virus (HSV-1)	mean % of reduction, coxsackievirus B4 (CBV4)	mean % of reduction, hepatitis A virus HM 175 (HAV HM175)	mean % of reduction, adenovirus type 7 (HAdV7)	CC50 (FRHK-4 cell line)	CC50 (Vero cell line)	IC50 (HAV HM175; hepatitis A virus HM 175, plaque reduction)	IC50 (HSV-1; herpes simplex virus, plaque reduction)
COc1ccc(-c2nc(NS(=O)(=O)c3ccccc3)nc(N)c2-c2nc3ccccc3s2)cc1 [14e, N-(4-Amino-5-(benzo[d]thiazol-2-yl)-6-(4-methoxyphenyl)pyrimidin-2-yl)benzenesulfonamide]	10 ± 0.3%	16.7 ± 0.1%	20 ± 0.2%	13.3 ± 0.2%	10 ± 0.1%	–	–	–	–
COc1ccc(-c2nc(N)nc(N)c2-c2nc3ccccc3s2)cc1 [13c, 5-(Benzo[d]thiazol-2-yl)-6-(4-methoxyphenyl)pyrimidine-2,4-diamine]	10 ± 0.1%	10 ± 0.3%	10 ± 0.2%	10 ± 0.1%	10 ± 0.2%	–	–	–	–
Nc1nc(NS(=O)(=O)c2ccccc2)nc(-c2ccc(Cl)cc2)c1-c1nc2ccccc2s1 [14c, N-(4-Amino-5-(benzo[d]thiazol-2-yl)-6-(4-chlorophenyl)pyrimidin-2-yl)benzenesulfonamide]	30 ± 0.7%	30 ± 0.8%	–	–	30 ± 0.6%	230 mg/L (≈ 466 µM)	–	–	–
COc1ccc(-c2nc(NS(=O)(=O)c3ccc(C)cc3)nc(N)c2-c2nc3ccccc3s2)cc1 [14j, N-(4-Amino-5-(benzo[d]thiazol-2-yl)-6-(4-methoxyphenyl)pyrimidin-2-yl)-4-methylbenzenesulfonamide]	10 ± 0.3%	10 ± 0.1%	10 ± 0.1%	10 ± 0.1%	10 ± 0.1%	–	–	–	–
Cc1ccc(C(=O)CNc2nc(NS(=O)(=O)c3ccccc3)ncc2-c2nc3ccccc3s2)cc1 [9c, N-(5-(Benzo[d]thiazol-2-yl)-4-((2-(p-tolyl)-2-oxoethyl)amino)pyrimidin-2-yl)benzenesulfonamide]	10 ± 0.6%	30 ± 1.0%	–	40 ± 1.2%	10 ± 0.2%	–	–	–	–
Cc1ccc(-c2nc(NS(=O)(=O)c3ccc(C)cc3)nc(N)c2-c2nc3ccccc3s2)cc1 [14i, N-(4-Amino-5-(benzo[d]thiazol-2-yl)-6-p-tolylpyrimidin-2-yl)-4-methylbenzenesulfonamide]	10 ± 0.2%	10 ± 0.1%	10 ± 0.1%	10 ± 0.2%	10 ± 0.1%	–	–	–	–
Nc1nc(NS(=O)(=O)c2ccccc2)nc(-c2ccccc2)c1-c1nc2ccccc2s1 [14a, N-(4-Amino-5-(benzo[d]thiazol-2-yl)-6-phenylpyrimidin-2-yl)benzenesulfonamide]	10 ± 0.1%	10 ± 0.2%	10 ± 0.1%	10 ± 0.1%	10 ± 0.2%	–	–	–	–
Cc1ccc(-c2nc(N)nc(N)c2-c2nc3ccccc3s2)cc1 [13b, 5-(Benzo[d]thiazol-2-yl)-6-p-tolylpyrimidine-2,4-diamine]	10 ± 0.2%	10 ± 0.1%	10 ± 0.1%	10 ± 0.1%	10 ± 0.1%	–	–	–	–
Cc1ccc(-c2nc(NS(=O)(=O)c3ccccc3)nc(N)c2-c2nc3ccccc3s2)cc1 [14d, N-(4-Amino-5-(benzo[d]thiazol-2-yl)-6-p-tolylpyrimidin-2-yl)benzenesulfonamide]	10 ± 0.1%	10 ± 0.1%	30 ± 0.2%	20 ± 0.2%	10 ± 0.1%	–	–	–	–
CSc1nc(NS(=O)(=O)c2ccccc2)nc(N)c1-c1nc2ccccc2s1 [17a, N-(4-Amino-5-(benzo[d]thiazol-2-yl)-6-(methylthio)pyrimidin-2-yl)benzenesulfonamide]	10 ± 0.1%	10 ± 0.3%	10 ± 0.1%	10 ± 0.2%	10 ± 0.2%	–	–	–	–
Nc1nc2c(ncn2COCCO)c(=O)[nH]1 [acyclovir, Acyclovir, reference compound]	–	–	–	–	–	–	28 mg/L (≈ 124 µM)	–	–
Nc1nc(NS(=O)(=O)c2ccccc2)ncc1-c1nc2ccccc2s1 [5a, N-(4-Amino-5-(Benzo[d]thiazol-2-yl)pyrimidin-2-yl)benzenesulfonamide]	30 ± 0.8%	20 ± 0.9%	–	–	20 ± 0.5%	220 mg/L (≈ 574 µM)	–	100 mg/L (≈ 261 µM)	–
CSc1nc(NS(=O)(=O)c2ccc(C)cc2)nc(N)c1-c1nc2ccccc2s1 [17b, N-(4-Amino-5-(benzo[d]thiazol-2-yl)-6-(methylthio)pyrimidin-2-yl)-4-methylbenzenesulfonamide]	10 ± 0.1%	10 ± 0.2%	20 ± 0.2%	10 ± 0.1%	10 ± 0.1%	–	–	–	–
Cc1ccc(S(=O)(=O)Nc2nc(N)c(-c3nc4ccccc4s3)c(-c3ccccc3)n2)cc1 [14f, N-(4-Amino-5-(benzo[d]thiazol-2-yl)-6-phenylpyrimidin-2-yl)-4-methylbenzenesulfonamide]	10 ± 0.1%	10 ± 0.1%	10 ± 0.2%	10 ± 0.1%	10 ± 0.2%	–	–	–	–
Cc1ccc(S(=O)(=O)Nc2ncc(-c3nc4ccccc4s3)c(N)n2)cc1 [5b, N-(4-Amino-5-(benzo[d]thiazol-2-yl)pyrimidin-2-yl)-4-methylbenzenesulfonamide]	20 ± 0.8%	40 ± 1.4%	–	40 ± 1.0%	20 ± 0.3%	–	–	–	–
CC(=O)CNc1nc(NS(=O)(=O)c2ccccc2)ncc1-c1nc2ccccc2s1 [compound 7, N-(5-(Benzo[d]thiazol-2-yl)-4-((2-oxopropyl)amino)pyrimidin-2-yl)benzenesulfonamide]	10 ± 0.3%	10 ± 0.5%	13.3 ± 0.4%	10 ± 0.2%	10 ± 0.2%	–	–	–	–
Nc1nc(NS(=O)(=O)c2ccccc2)nc(-c2ccc(F)cc2)c1-c1nc2ccccc2s1 [14b, N-(4-Amino-5-(benzo[d]thiazol-2-yl)-6-(4-fluorophenyl)pyrimidin-2-yl)benzenesulfonamide]	10 ± 0.6%	70 ± 1.3%	–	–	30 ± 0.5%	220 mg/L (≈ 461 µM)	250 mg/L (≈ 524 µM)	–	66 mg/L (≈ 138 µM)
